From patent publication US6812221B2, “FGF-affinity chromatography” (The Texas A&M University System, priority 2000, dated 2004)
“Also recorded” adds a separate entry of the source. One block for each substance: values may come before it.

Legend:
[1] = cited from earlier work
[2] = target: T1, FGF7 (Rattus norvegicus, UniProt Q02195); experiment: Protease (pronase) protection assay with 125I-FGF7; format: biochemical; conditions: 150 ng pronase, overnight 37° C., SDS-PAGE/autoradiography
T1 construct: GST (N, cleaved yes); made in house; host or cells: bacteria (E. coli)
T1 sequence (Q02195 55-194): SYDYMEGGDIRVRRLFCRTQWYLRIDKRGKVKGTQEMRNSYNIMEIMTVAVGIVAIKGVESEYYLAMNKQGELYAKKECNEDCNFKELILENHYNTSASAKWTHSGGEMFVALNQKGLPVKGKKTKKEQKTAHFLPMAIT
Experimental: Interaction of Heparin and Oligosaccharides with FGF. The antithrombin-binding decasaccharide (10-mer) was prepared, purified to homogeneity (28) and has the structure ΔUAp2S(1→4)-α-D-GlcNpS6S(1→4)-α-L-IdoAp(1→4)-α-D-GlcNpAc6S(1→4)-β-D-GlcAp(1→4)-α-D-GlcNpS3S6S(1→4)-α-L-IdoAp2S(1→4)-α-D-GlcNpS6S(1→4)-α-L-IdoAp2S(1→4)-α-D-GlcNpS6S. The tetradecasaccharide (14-mer) was prepared in >90% purity and characterized by multidimensional NMR spectroscopy (Toida et al. 1996). While the saccharide composition and the presence of an antithrombin-binding site pentasaccharide sequence could be confirmed, the precise placement of this sequence within the tetradecasaccharide could not be elucidated. The sequence was ΔUAp2S(1→4)-α-D-GlcNpS6S (1→4)-α-L-IdoAp2S(1→]n4)-α-D-GlcNpS6S(1→4)-α-LIdoAp(1→4)-α-D-GlcNpAc6S(1→4)-β-D-GlcAp(1→4)-α-D-GlcNpS3S6S(1→4)-α-L-IdoAp2S(1→[4)-α-D-GlcNpS6S(1→4)-α-L-IdoAp2S(1 43 ]m4)-α-D-GlcNS6S where n+m=3. The anti-factor Xa amydolytic activity of the hexasaccharide (6-mer), decasaccharide (10-mer) and tetradecasaccharide (14-mer) were 0, 3200 and 5800 units/mg, respectively, as determined against a low molecular weight heparin (Toida et al. 1996). Heparin was fractionated by antithrombin affinity chromatography (Kan et al. 1999). […] After incubation overnight at 37° C., SDS-PAGE and autoradiography were employed to quantify the remaining FGF. […]

[3] = test system: factor Xa; conditions: determined against a low molecular weight heparin (Toida et al. 1996); cited from earlier work
[4] = test system: mouse keratinocytes (MK); experiment: Mitogenic activity in cultured mouse keratinocytes (MK); format: cell-based; conditions: cells in culture
Experimental: (§1) Finally, the recovery and activity of purified ^54Ser-FGF7 was tested after the removal of the GST portion by trypsin treatment from the heparin-immobilized GST-FGF7 recovered under the improved conditions employing 10 mM MgCl2 and the BL21 (DE3) pLysS strain. […] Results indicated a yield of pure ^54Ser-FGF7 of 4.8±0.5 mg per liter per OD600, which on a molar basis represents an average yield of 70 percent from the purified GST-FGF7 product.

[5] = Heparin affinity chromatography / heparin binding
Experimental: FIG. 1. Intact heparin-binding in the GST-FGF7 fusion product. Pure 200 μg GST-FGF7 and 10 ng ^125I-FGF7 (3×10^6 cpm) was mixed and subjected to heparin affinity chromatography on Pharmacia FPLC system. The GST-FGF7 was detected as a major peak (solid trace) by absorbance at 280 nm.
When fused at the N-terminal of FGF7 with a highly soluble and productive partner, Glutathione-S-transferase (GST), FGF7 was produced in bacteria at about 3.2 mg/ml yield with retained biological activity. Expressing alone has barely detectable level by immuno-reaction. Pure fusion protein was obtained by sequential chromatography on Glutathione (GSH) and Heparin affinity matrix (Luo et al. 1998, Lu et al. 1999, Jang et al. 1997). This is consistent with FGF7 crystal structure, which shown that the N-terminal of FGF7 is flexible and outside the compact core structure, and heparin-binding domain is apart from the flexible N-terminal. FGF7 itself was released by simply trypsin digestion that mimics an in vivo cleavage event (Luo et al. 1998, Lu et al. 1999, Jang et al. 1997).

[6] = test system: factor Xa; experiment: Neutralization assay, anti-Factor Xa activity of heparin; format: biochemical; conditions: 0.9M NaCl eluted 6000 Da heparin fractions
Experimental: (§2) FIG. 4. Neutralization of anticoagulant activity of 0.9M NaCl eluted 6000 Da heparin (Sigma) fractions from GST-FGF7 column (closed squares) or Antithrombin column (closed triangles) by FGF7. a. 0.3, 1, 3, 10, 30 ug/ml FGF7 was used to neutralize anti-Factor Xa activity of 0.9M elute. b. 0.3, 1, 3, 10, 30 μg/ml FGF7 was used to neutralize anti-Factor IIa activity. The activity was expressed as percentage of Factor Xa or IIa activity in the presence of Antithrombin and FGF7, but absence of any heparin, subtracted by the remaining activity without FGF7 addition. […] Data represent average of at least three separate experiments.
(§3) Neutralization assay. 10 μl 1 μg/ml 0.9 M high affinity FGF7 or Antithrombin bound 6000 Da heparin (final concentration 100 ng/ml) (Sigma, St. Louis) and 10 μl various concentration of FGF7 were incubated with 10 μl 10 μg/ml Antithrombin solution. The rest of the assay was essentially followed the anti-Factor Xa or anti-Factor IIa assay described above. The activity was expressed as percentage of Factor Xa or IIa activity in the presence of Antithrombin and FGF7, but absence of any heparin, subtracted by the remaining activity without FGF7 addition.

[7] = target: T2, FGFR2111b (Homo sapiens, UniProt P21802); experiment: Binding to FGFR complex on the surface of insect cells
T2 construct: expressed in transfected cells; host or cells: insect cells
Experimental: as §1

[8] = test system: Factor IIa; experiment: Neutralization assay, anti-Factor IIa activity of heparin; format: biochemical; conditions: 0.9M NaCl eluted 6000 Da heparin fractions
Experimental: as §2, §3

T2 sequence (P21802 22-822 isoform P21802-3 limits assumed): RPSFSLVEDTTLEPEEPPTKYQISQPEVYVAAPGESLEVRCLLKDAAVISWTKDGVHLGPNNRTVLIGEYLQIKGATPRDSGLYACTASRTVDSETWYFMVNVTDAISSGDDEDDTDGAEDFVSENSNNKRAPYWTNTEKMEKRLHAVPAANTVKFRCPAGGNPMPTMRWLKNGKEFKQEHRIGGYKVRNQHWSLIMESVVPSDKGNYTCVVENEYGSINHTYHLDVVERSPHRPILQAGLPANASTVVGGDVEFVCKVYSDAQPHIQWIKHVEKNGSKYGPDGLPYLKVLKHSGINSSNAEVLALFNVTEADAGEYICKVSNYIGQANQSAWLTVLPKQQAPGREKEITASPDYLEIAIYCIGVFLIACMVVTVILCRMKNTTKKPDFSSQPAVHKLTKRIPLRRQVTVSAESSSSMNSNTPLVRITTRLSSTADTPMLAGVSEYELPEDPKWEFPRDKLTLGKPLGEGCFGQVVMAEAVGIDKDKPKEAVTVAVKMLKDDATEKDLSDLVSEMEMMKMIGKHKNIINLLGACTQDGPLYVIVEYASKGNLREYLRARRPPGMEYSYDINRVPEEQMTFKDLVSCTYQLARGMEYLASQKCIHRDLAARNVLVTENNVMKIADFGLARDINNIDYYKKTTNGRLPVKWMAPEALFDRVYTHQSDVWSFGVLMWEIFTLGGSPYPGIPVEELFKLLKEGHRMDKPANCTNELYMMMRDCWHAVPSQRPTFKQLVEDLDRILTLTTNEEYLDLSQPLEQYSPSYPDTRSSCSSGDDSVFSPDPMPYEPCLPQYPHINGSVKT

Substance: PF4: Heparin-binding platelet factor 4, proposed scavenger for neutralizing the anticoagulant effect
- adverse effect of administration to patients ([1]; humans (U.S. Pat. No. 5,801,063)): serious granulocytopenia

- protection of FGF7 against protease [2]: able to protect
Substance: ΔUAp2S(1→4)-α-D-GlcNpS6S(1→4)-α-L-IdoAp(1→4)-α-D-GlcNpAc6S(1→4)-β-D-GlcAp(1→4)-α-D-GlcNpS3S6S(1→4)-α-L-IdoAp2S(1→4)-α-D-GlcNpS6S(1→4)-α-L-IdoAp2S(1→4)-α-D-GlcNpS6S [decasaccharide (10-mer)]
- anti-factor Xa amydolytic activity [3]: 3200 units/mg

Substance: protamine
- incidence of mild reactions ([1]; use of protamine in patients): ≤ 16%

- sodium chloride concentration of elution from heparin affinity column ([5]; heparin affinity chromatography, FPLC (FIG. 1)): about 0.9 M
Substance: GST-FGF7: fusion protein Glutathione-S-Transferase-Fibroblast Growth Factor 7, SEQ ID NO.4
- mitogenic activity [4]: Neither GST-FGF1 nor GST-FGF7 bind and activate the FGFR kinase complex and exhibit mitogenic activity; also recorded: inactive
- heparin binding [5]: retain affinity for heparin similar to the unfused products; also recorded: fully active
- neutralization of anti-Factor Xa activity compared with FGF7 [6]: same neutralization effects as FGF7
- binding to / activation of the FGFR complex [7]: Neither GST-FGF1 nor GST-FGF7 bind and activate the FGFR kinase complex; also recorded: inactive
- neutralization of anti-Factor IIa activity compared with FGF7 [8]: same neutralization effects as FGF7

- protection of FGF7 against protease [2]: able to protect
Substance: ΔUAp2S(1→4)-α-D-GlcNpS6S (1→4)-α-L-IdoAp2S(1→]n4)-α-D-GlcNpS6S(1→4)-α-LIdoAp(1→4)-α-D-GlcNpAc6S(1→4)-β-D-GlcAp(1→4)-α-D-GlcNpS3S6S(1→4)-α-L-IdoAp2S(1→[4)-α-D-GlcNpS6S(1→4)-α-L-IdoAp2S(1 43 ]m4)-α-D-GlcNS6S where n+m=3 [tetradecasaccharide (14-mer)]
- anti-factor Xa amydolytic activity [3]: 5800 units/mg

Substance: heparin
- patients developing clinically significant osteoporosis ([1]; human, in vivo): half
- patients with thrombocytopenia persisting for the duration of therapy ([1]; human, in vivo): approximately 5%

Substance: GST-FGF1: human FGF1 fused to Glutathione-S-Transferase (GST)
- mitogenic activity [4]: Neither GST-FGF1 nor GST-FGF7 bind and activate the FGFR kinase complex and exhibit mitogenic activity
- heparin binding [5]: retain affinity for heparin similar to the unfused products
- binding to / activation of the FGFR complex [7]: Neither GST-FGF1 nor GST-FGF7 bind and activate the FGFR kinase complex
